Source: patent US11339144B2 (Navitor Pharmaceuticals, Inc., priority 2017, dated 2022)
Like-named read-outs stand apart in the source and are kept apart here.

Assays:
[1] = test system: T389pS6K1 in MCF-7 cells; assay: Cell-based AlphaLISA assay, pS6K1 (Thr389)
[2] = molecular target: Rheb (Homo sapiens (Human), UniProt Q15382); assay: Affinity Selection Mass Spectrometry (ASMS); type: binding; conditions: affinity (R3/R0) in Affinity Selection Mass Spectrometry assay
Summary of the method: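 Human Rheb (60 μM) with GDP (180 μM) and each compound at 2 μM, protein-plus versus protein-minus, incubated 30 min at room temperature, then washed by 10 kDa ultrafiltration. Retained ligand was released with MeCN and detected by UPLC-Q-TOF MS.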

[3] = molecular target: HA-GST-Rheb (GTP-γ-S loaded) activating mTORC1 (Homo sapiens (Human), UniProt Q15382); assay: Rheb-dependent in vitro kinase assay (Rheb-IVK; LanthaScreen or Western readout); type: biochemical
[4] = test system: S473pAkt in MCF-7 cells; assay: Cell-based AlphaLISA assay, pAkt (S473)
[5] = test system: mTORC1 and mTORC2 signaling in PC3 cells; assay: Long-term treatment vs. rapamycin in PC3 cells, Western blot; type: cell-based; conditions: replete, 2, 5, 18 or 24 hrs, NR1 30 μM, rapamycin 100 nM
[6] = Rheb-dependent in vitro kinase assay, read-out: IVK IC50
[7] = LanthaScreen variation, Terbium labeled T46p4E-BP1 specific antibody, read-out: IC50 in the Rheb-IVK

Chain of Rheb (Q15382 1-169 limits assumed): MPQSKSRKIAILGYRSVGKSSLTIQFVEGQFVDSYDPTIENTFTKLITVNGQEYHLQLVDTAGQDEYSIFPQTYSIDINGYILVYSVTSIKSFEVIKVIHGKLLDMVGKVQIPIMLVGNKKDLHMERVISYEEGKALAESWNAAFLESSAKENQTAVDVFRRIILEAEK
Chain of HA-GST-Rheb (GTP-γ-S loaded) activating mTORC1 (Q15382 1-181): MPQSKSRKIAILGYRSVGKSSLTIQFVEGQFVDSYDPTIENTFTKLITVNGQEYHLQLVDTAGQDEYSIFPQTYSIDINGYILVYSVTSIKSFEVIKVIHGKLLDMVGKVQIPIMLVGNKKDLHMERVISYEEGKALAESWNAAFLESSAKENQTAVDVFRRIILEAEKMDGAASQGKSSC

IC50 ([1]; Homo sapiens, MCF7) [µM]	IC50 [3, 6] [µM]	SMILES	ASMS (R3/R0) [2]	also measured
< 10	< 10	CN1CCN(c2cccc(NC(=O)c3cc4c(-c5cc(Cl)cc(Cl)c5)cc(Cl)cc4[nH]3)c2)CC1 [I-30, 6-chloro-4-(3,5-dichlorophenyl)-N-(3-(4-methylpiperazin-1-yl)phenyl)-1H-indole-2-carboxamide]	A (an affinity (R3/R0)>100%)	
< 10	< 10	CN1CCC(NC(=O)c2cc3c(Sc4ccc(Cl)cc4)cc(Cl)cc3[nH]2)C1 (stereo not drawn) [I-79, 6-chloro-4-(4-chlorophenylthio)-N-(1-methylpyrrolidin-3-yl)-1H-indole-2-carboxamide]	B (an affinity (R3/R0) between 100% and 20%)	
< 10	< 10	CN1CCC(CCNC(=O)c2cc3c(Sc4ccc(Cl)cc4Cl)cc(Cl)cc3[nH]2)CC1 [I-106, 6-chloro-4-(2,4-dichlorophenylthio)-N-(2-(1-methylpiperidin-4-yl)ethyl)-1H-indole-2-carboxamide]	B (an affinity (R3/R0) between 100% and 20%)	
< 10	< 10	CN1CCC(CNC(=O)c2cc3c(Sc4ccc(Cl)cc4Cl)cc(Cl)cc3[nH]2)CC1 [I-120, 6-chloro-4-(2,4-dichlorophenylthio)-N-((1-methylpiperidin-4-yl)methyl)-1H-indole-2-carboxamide]	B (an affinity (R3/R0) between 100% and 20%)	
< 10	< 10	CN1CCN(c2ccc(NC(=O)c3cc4c(Sc5ccc(Cl)cc5)cc(Cl)cc4[nH]3)cc2F)CC1 [I-141, 6-chloro-4-(4-chlorophenylthio)-N-(3-fluoro-4-(4-methylpiperazin-1-yl)phenyl)-1H-indole-2-carboxamide]	B (an affinity (R3/R0) between 100% and 20%)	
< 10	< 10	CN1CCC(CCNC(=O)c2cc3c(Sc4ccc(Cl)cc4)cc(Cl)cc3[nH]2)CC1 [I-142, 6-chloro-4-(4-chlorophenylthio)-N-(2-(1-methylpiperidin-4-yl)ethyl)-1H-indole-2-carboxamide]	A (an affinity (R3/R0)>100%)	
	100 to 300	Clc1cc2nc(-c3ncco3)n(Cc3ccc(-c4nn[nH]n4)cc3)c2cc1Cl [I-489, 2-(1-(4-(2H-tetrazol-5-yl)benzyl)-5,6-dichloro-1H-benzo[d]imidazol-2-yl)oxazole]	C (an affinity (R3/R0)<20%)	
	> 100	OCc1nc2cc(OCc3ccccc3)c(Cl)cc2[nH]1 [I-492]	C (an affinity (R3/R0)<20%)	
	> 100	OCc1nc2c(OCc3ccccc3)cc(Cl)cc2[nH]1 [I-493]	C (an affinity (R3/R0)<20%)	
		CCC(=O)N1CCN(c2ccc(-n3c(=O)ccc4cnc5ccc(-c6cnc7ccccc7c6)cc5c43)cc2C(F)(F)F)CC1 [Torin-1, reference compound]		IC50 [1]: ~0.001 µM; IC50 [4]: ~0.005 µM; IC50 [3, 7]: ~0.002 µM
		CO[C@H]1C[C@@H]2CC[C@@H](C)[C@@](O)(O2)C(=O)C(=O)N2CCCC[C@H]2C(=O)O[C@H]([C@H](C)C[C@@H]2CC[C@@H](O)[C@H](OC)C2)CC(=O)[C@H](C)/C=C(\C)[C@@H](O)[C@@H](OC)C(=O)[C@H](C)C[C@H](C)/C=C/C=C/C=C/1C [rapamycin, reference compound]		mTORC1 versus mTORC2 signaling with chronic exposure (T389pS6K1, S473pAkt) [5]: inhibits mTORC2 signaling with chronic exposure; inhibition of the Rheb-IVK ([3]; LanthaScreen variation, no FKBP12 present): did not inhibit the Rheb-IVK

SMILES	IC50 ([1]; Homo sapiens, MCF7) [µM]	IC50 [3, 6] [µM]	ASMS (R3/R0) [2]	also measured
CN(C)C(=O)c1ccc(Cn2c(C(=O)O)cc3c(Br)cc(Sc4ccc(Cl)c(Cl)c4)cc32)cc1 [I-102, 4-Bromo-6-(3,4-dichlorophenylthio)-1-(4-(dimethylcarbamoyl)benzyl)-1H-indole-2-carboxylic acid]		< 10	B (an affinity (R3/R0) between 100% and 20%)	inhibition of pAKT [4]: did not inhibit pAKT; IC50 [3, 7]: ~2.1 µM
